Reference: patent US20260034112A1, “MULTI-CYCLIC IRAK1 AND IRAK4 INHIBITING COMPOUNDS AND USES THEREOF” (CHILDREN'S HOSPITAL MEDICAL CENTER, priority 2022, published 2026)

System: THP1 cells
Format: cell-based, human
Conditions: CA-4948 vs DMSO in THP1 cells

SMILES: Cc1cc(-c2nc(C(=O)Nc3cc4oc(N5CCOCC5)nc4nc3N3CC[C@@H](O)C3)co2)ccn1 [CA-4948, emavusertib]
- Log(FC) of gene LOC101929243: 0.7647
- Log(FC) of gene LOC101929264: 0.8417
- Log(FC) of gene LOC101929280: 0.7936
- Log(FC) of gene LOC101929661: 0.748
- Log(FC) of gene LOC101929747: 0.6127
- Log(FC) of gene LOC101929814: −0.8463
- Log(FC) of gene LOC102467073: 0.73
- Log(FC) of gene LOC102723589: 0.8153
- Log(FC) of gene LOC102723616: 0.7122
- Log(FC) of gene LOC102723714: 0.6674
- Log(FC) of gene LOC102723959: 0.9881
- Log(FC) of gene LOC102723975: 1.408
- Log(FC) of gene LOC102724098: −0.6399
- Log(FC) of gene LOC102724169: 0.726
- Log(FC) of gene LOC102724217: 0.6865
- Log(FC) of gene LOC102724235: 0.7375
- Log(FC) of gene LOC102724248: 0.652
- Log(FC) of gene LOC102724409: 1.429
- Log(FC) of gene LOC102724528: −0.8481
- Log(FC) of gene LOC102724545: 0.8513
- Log(FC) of gene LPAR2: 0.7255
- Log(FC) of gene M1AP: 0.7754
- Log(FC) of gene MAMDC4: 0.628
- Log(FC) of gene MBLAC1: −0.6134
- Log(FC) of gene MDGA1: 0.7307
- Log(FC) of gene METTL12: 0.6315
- Log(FC) of gene MFI2-AS1: 0.5997
- Log(FC) of gene MGC12916: −0.9124
- Log(FC) of gene MGC16142: 0.5952
- Log(FC) of gene MIR570: 1.064
- Log(FC) of gene MIR1244-1: 0.6309
- Log(FC) of gene MIR3187: 1.121
- Log(FC) of gene MROH6: 0.8417
- Log(FC) of gene MYLK-AS1: 1.091
- Log(FC) of gene MYO7B: 0.6068
- Log(FC) of gene NGFR: 0.8097
- Log(FC) of gene NOL3: 0.6401
- Log(FC) of gene NPFF: 0.6633
- Log(FC) of gene NPIPA3: 1.643
- Log(FC) of gene NPIPA8: 0.8183
- Log(FC) of gene ORM1: 0.6834
- Log(FC) of gene PAPPA2: 0.8397
- Log(FC) of gene PAQR6: 0.6274
- Log(FC) of gene PAX8: −0.6687
- Log(FC) of gene PCBP3: 0.5937
- Log(FC) of gene PCOLCE2: −0.6424
- Log(FC) of gene PDE5A: 0.8121
- Log(FC) of gene PDPN: 0.7486
- Log(FC) of gene PITX2: 0.6882
- Log(FC) of gene POLN: 1.016
- Log(FC) of gene POTEE: 1.077
- Log(FC) of gene PPIEL: 0.6279
- Log(FC) of gene PPP1R13L: 0.6598
- Log(FC) of gene PPP1R32: 0.5902
- Log(FC) of gene PROB1: 0.6297
- Log(FC) of gene PRR22: 1.272
- Log(FC) of gene PRSS53: 0.79
- Log(FC) of gene PSMG3-AS1: 0.6249
- Log(FC) of gene PTGER1: 0.6218
- Log(FC) of gene QRICH2: 0.9066
- Log(FC) of gene RAPGEFL1: 0.6118
- Log(FC) of gene RARRES3: 0.6342
- Log(FC) of gene RASSF8-AS1: −0.6459
- Log(FC) of gene RCN3: 0.6431
- Log(FC) of gene RIMS2: −0.6856
- Log(FC) of gene RN7SK: −0.7805
- Log(FC) of gene RN7SL1: −0.6652
- Log(FC) of gene RNU2-2P: −3.126
- Log(FC) of gene RNU86: 0.6578
- Log(FC) of gene RNU105A: −0.7199
- Log(FC) of gene RP3-476K8.3: 0.6781
- Log(FC) of gene RP11-261C10.3: −0.7243
- Log(FC) of gene RP11-307C12.11: 0.6268
- Log(FC) of gene RP11-344E13.3: 0.712
- Log(FC) of gene RP11-454P21.1: 0.5869
- Log(FC) of gene RP11-540A21.2: −0.8218
- Log(FC) of gene RPPH1: −1.864
- Log(FC) of gene RPS18P9: 0.9157
- Log(FC) of gene RPSAP9: −0.6976
- Log(FC) of gene RUFY4: 0.9698
- Log(FC) of gene SAMD5: −0.6977
- Log(FC) of gene SAMD13: −0.6418
- Log(FC) of gene SAP25: 0.962
- Log(FC) of gene SARM1: 0.783
- Log(FC) of gene SCART1: 1.38
- Log(FC) of gene SCN8A: 0.7836
- Log(FC) of gene SCXB: 0.8721
- Log(FC) of gene SEC31B: 0.7359
- Log(FC) of gene SEMA3B: 0.6963
- Log(FC) of gene SEMA3C: −0.6821
- Log(FC) of gene SEMG1: −0.6203
- Log(FC) of gene SERPINB2: −0.6225
- Log(FC) of gene SIGLEC16: 0.7305
- Log(FC) of gene SIM1: −0.8741
- Log(FC) of gene SLC2A14: 0.5944
- Log(FC) of gene SLC7A5P2: 0.8202
- Log(FC) of gene SLC7A11: −0.9711
- Log(FC) of gene SLC22A20: 0.7923
- Log(FC) of gene SLC25A5-AS1: −0.5981
- Log(FC) of gene SLCO2B1: −0.6999
- Log(FC) of gene SLFNL1: 0.599
- Log(FC) of gene SLFNL1-AS1: 0.7053
- Log(FC) of gene SMA4: −0.6311
- Log(FC) of gene SNORD3A: −1.579
- Log(FC) of gene SNORD30: 1.062
- Log(FC) of gene SNORD79: 0.5858
- Log(FC) of gene SNX32: 0.6555
- Log(FC) of gene SPATA41: 0.6171
- Log(FC) of gene SPATC1: 1.175
- Log(FC) of gene SPRED1: −0.6296
- Log(FC) of gene SPTBN5: 1.272
- Log(FC) of gene ST13P4: −0.623
- Log(FC) of gene STX18-AS1: 0.8594
- Log(FC) of gene STXBP5-AS1: 0.6561
- Log(FC) of gene SYDE2: −0.6236
- Log(FC) of gene SYTL2: 0.7254
- Log(FC) of gene TCAM1P: 0.6669
- Log(FC) of gene TEKT4P2: 0.8324
- Log(FC) of gene TESPA1: 0.724
- Log(FC) of gene TLR5: 0.7065
- Log(FC) of gene TMEM9B-AS1: 0.8758
- Log(FC) of gene TMEM86B: 0.6481
- Log(FC) of gene TMEM145: 0.9943
- Log(FC) of gene TMEM150A: −0.8108
- Log(FC) of gene TMEM175: 0.6594
- Log(FC) of gene TMEM191A: 0.6824
- Log(FC) of gene TMEM254-AS1: 0.767
- Log(FC) of gene TMEM255A: −0.5904
- Log(FC) of gene TMPRSS13: 0.6639
- Log(FC) of gene TNFAIP8L2-SCNM1: −1.749
- Log(FC) of gene TNXB: 1.806
- Log(FC) of gene TP53I3: 0.7187
- Log(FC) of gene TPD52L1: 0.7014
- Log(FC) of gene TRIM72: 0.5946
- Log(FC) of gene TSKU: −0.6402
- Log(FC) of gene TSPEAR-AS1: 0.5855
- Log(FC) of gene TTC4: −0.6304
- Log(FC) of gene TUBA1A: 0.5916
- Log(FC) of gene TXLNB: 0.8051
- Log(FC) of gene UCN: 1.177
- Log(FC) of gene UCP3: 0.6963
- Log(FC) of gene ULK4P1: −0.9282
- Log(FC) of gene UNC5CL: 0.8031
- Log(FC) of gene VAMP5: 0.6392
- Log(FC) of gene VWA7: 0.8656
- Log(FC) of gene WDFY3-AS2: 0.6617
- Log(FC) of gene WNK4: 1.507
- Log(FC) of gene WT1-AS: 0.6396
- Log(FC) of gene YJEFN3: 1.024
- Log(FC) of gene ZCWPW2: −0.722
- Log(FC) of gene ZDHHC11: 1.406
- Log(FC) of gene ZNF284: −0.5982
- Log(FC) of gene ZNF491: 0.7713
- Log(FC) of gene ZNF891: −0.7965
- Log(FC) of gene ZP3: 0.9339
- Log(FC) of gene ZSWIM8-AS1: 0.9316
